Starred links: 1 amine or outer side, 2 acyl side, 3 side chain; linkers in the order of their positions; H or OH if unused. Non-standard residues stand in square brackets, D forms with d. Residues, ends and D or L forms follow the SMILES beside them. Groups on a side chain read outwards from the residue. *: point of attachment. C20 diacid = O=C(O)CCCCCCCCCCCCCCCCCCC(=O)*; γGlu = O=C(O)[C@H](CCC(=O)[*:2])N[*:1]; NMeY = CN[C@@H](Cc1ccc(O)cc1)C(=O)O
Legend:
Assay in all cases: NPY receptor functional assay (cAMP, HEK-CNG cells, ACTOne membrane potential dye)
Type in all cases: cell-based
human Y5 receptor = biological target: T1, human Y5 receptor (Homo sapiens, UniProt Q15761); conditions: NPY5R pEC50, HEK-CNG cells; standard NPY; species (human or rat) not given
T1 sequence (Q15761 1-445): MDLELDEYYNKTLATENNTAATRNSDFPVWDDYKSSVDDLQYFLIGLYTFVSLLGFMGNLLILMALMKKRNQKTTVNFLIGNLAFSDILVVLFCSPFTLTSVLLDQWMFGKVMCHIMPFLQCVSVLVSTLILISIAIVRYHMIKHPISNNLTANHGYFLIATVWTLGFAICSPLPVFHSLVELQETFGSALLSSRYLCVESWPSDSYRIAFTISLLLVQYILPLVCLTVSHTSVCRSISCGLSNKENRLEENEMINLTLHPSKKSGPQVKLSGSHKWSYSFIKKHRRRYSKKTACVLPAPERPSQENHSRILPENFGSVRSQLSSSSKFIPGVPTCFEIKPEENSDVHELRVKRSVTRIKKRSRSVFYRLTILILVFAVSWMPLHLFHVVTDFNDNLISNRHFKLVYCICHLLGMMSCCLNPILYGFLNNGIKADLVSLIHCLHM
Description: (§1) The NPY family of G-protein coupled receptors include Y1, Y2, Y4, and Y5 in humans and rats. […] Following agonist binding, the receptor-G protein complex activates a downstream intracellular signaling cascade which leads to inhibition of adenylate cyclase and a reduction in intracellular cAMP levels.
(§2) HEK-CNG cells stably expressing the human or rat Y1, Y2, Y4 or Y5 receptors (Codex Biosolutions) were used to characterize the functional potency of peptide agonists using the ActOne™ membrane potential dye kit (Codex Biosolutions). In addition to each NPY receptor, each cell line encodes a proprietary exogenous Cyclic Nucleotide-Gated (CNG) channel (Codex Biosolutions). The channel is activated by elevated intracellular levels of cAMP, resulting in ion flux and cell membrane depolarization which can be detected with a calcium sensitive dye or fluorescent membrane potential (MP) dye. Cells were carried in growth media containing 90% DMEM, 10% FBS, 250 mcg/mL G418 and 1 mcg/mL puromycin for no more than 15 passages.
(§3) Prior to testing, cells were counted and dispensed at 14,000 cells per well (Y1, Y4 and Y5) or 28,000 cells per well (Y2) into black 384 well Poly-D-Lysine plates at 20 mcL per well. Covered plates were then incubated at room temperature for 30 minutes followed by an overnight incubation at 37° C. in 5% C02. The following day, media was removed and wells were washed once with 40 mcL Dulbecco's phosphate buffered saline. […] Ten microliters of experimental peptide or peptide standard was added in triplicate to wells and incubated for 50 minutes at room temperature in the dark. Following this incubation step, plates were read again as before (final read).
(§4) NPY receptor activation, leading to a reduction in intracellular cAMP levels, is detected as a decrease in isoproteranol induced fluorescent signal. Peptide standard and experimental values were initially transformed in excel using the formula: final read/initial read. Transformed values were then normalized to receptor specific standard values (1×10−13 M minimum and 1×10−7 M maximum) using the formula: (test value−standard minavg)/(standard maxavg−standard minavg)*100. […] Normalized data was analyzed from triplicate tests and used to estimate the EC50 for each test peptide on each receptor. Data was fit in GraphPad Prism software (v8.2.1) using a 3-parameter logistic curve model: Y=Bottom+(Top−Bottom)/(1+10^((LogEC50−X))). EC50 values were converted to pEC50 values using the formula: pEC50=−Log(EC50).

human Y2 receptor = biological target: T2, human Y2 receptor (Homo sapiens, UniProt P49146); conditions: NPY2R pEC50, HEK-CNG cells; standard PYY(3-36); species (human or rat) not given
T2 sequence (P49146 1-381): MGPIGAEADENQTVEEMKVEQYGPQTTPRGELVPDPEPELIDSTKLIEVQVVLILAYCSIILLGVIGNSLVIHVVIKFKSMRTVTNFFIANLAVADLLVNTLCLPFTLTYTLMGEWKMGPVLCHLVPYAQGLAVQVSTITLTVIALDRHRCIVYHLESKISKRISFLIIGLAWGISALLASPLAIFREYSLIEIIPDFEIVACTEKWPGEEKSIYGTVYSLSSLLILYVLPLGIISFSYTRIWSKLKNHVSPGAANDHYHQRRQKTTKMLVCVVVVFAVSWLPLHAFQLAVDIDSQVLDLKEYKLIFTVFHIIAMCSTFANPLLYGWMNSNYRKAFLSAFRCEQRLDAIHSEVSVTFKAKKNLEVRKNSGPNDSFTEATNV
Description: as §1, §2, §3, §4

human Y4 receptor = human Y4 receptor (Homo sapiens, UniProt P50391); conditions: standard PP, species (human or rat) not given
Description: as §1, §2, §3, §4

human Y4 receptor, sequence (P50391 whole entry): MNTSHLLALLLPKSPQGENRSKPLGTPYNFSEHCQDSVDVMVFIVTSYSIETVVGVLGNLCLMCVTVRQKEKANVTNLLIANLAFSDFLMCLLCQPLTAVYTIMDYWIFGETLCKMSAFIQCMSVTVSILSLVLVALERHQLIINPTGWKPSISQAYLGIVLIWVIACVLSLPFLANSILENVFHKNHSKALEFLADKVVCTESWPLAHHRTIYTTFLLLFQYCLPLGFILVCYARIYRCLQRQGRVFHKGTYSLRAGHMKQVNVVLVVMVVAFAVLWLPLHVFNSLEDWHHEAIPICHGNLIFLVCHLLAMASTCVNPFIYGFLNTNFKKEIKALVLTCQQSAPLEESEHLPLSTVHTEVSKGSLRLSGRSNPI

CC(C)C[C@H](NC(=O)[C@H](CC(=O)O)NC(=O)[C@H](CCCCNC(=O)CC[C@H](NC(=O)CC[C@H](NC(=O)CCCCCCCCCCCCCCCCCCC(=O)O)C(=O)O)C(=O)O)NC(=O)[C@H](Cc1ccc(O)cc1)NC(=O)[C@H](Cc1ccc(O)cc1)NC(=O)[C@H](CCCNC(=N)N)NC(=O)[C@H](CC(N)=O)NC(=O)[C@H](Cc1c[nH]c2ccccc12)NC(=O)[C@H](CCC(=O)O)NC(=O)[C@H](CCC(=O)O)NC(=O)[C@@H]1CCCN1C(=O)[C@H](CO)NC(=O)[C@H](C)NC(=O)[C@H](CC(=O)O)NC(=O)[C@H](CCCCN)NC(=O)CNC(=O)[C@@H]1CCCN1C(=O)[C@H](C)NC(=O)[C@H](CCC(=O)O)NC(=O)[C@@H]1CCCN1C(=O)[C@H](CCCCN)NC(=O)[C@@H]1CCCN1)C(=O)N[C@@H](CCCNC(=N)N)C(=O)N[C@@H](Cc1c[nH]cn1)C(=O)N[C@@H](Cc1ccc(O)cc1)C(=O)N[C@@H](CC(C)C)C(=O)N[C@@H](CC(N)=O)C(=O)N[C@@H](Cc1c[nH]c2ccccc12)C(=O)N[C@@H](CC(C)C)C(=O)N[C@H](C(=O)N[C@@H](CCCNC(=N)N)C(=O)N[C@@H](CCC(N)=O)C(=O)N[C@@H](CCCNC(=N)N)C(=O)N[C@@H](Cc1ccccc1)C(N)=O)[C@@H](C)O [Compound A54]
EC50 (human Y5 receptor): 10 nM
EC50 (human Y2 receptor): 20 nM
NPY4R pEC50 (human Y4 receptor): inactive

CC(C)C[C@H](NC(=O)[C@H](Cc1ccc(O)cc1)NC(=O)[C@H](Cc1c[nH]cn1)NC(=O)[C@H](CCCNC(=N)N)NC(=O)[C@H](C)NC(=O)[C@H](CC(=O)O)NC(=O)[C@H](C)NC(=O)[C@H](Cc1ccc(O)cc1)NC(=O)[C@H](Cc1ccc(O)cc1)NC(=O)[C@H](CCCNC(=N)N)NC(=O)[C@H](CC(N)=O)NC(=O)[C@H](Cc1c[nH]c2ccccc12)NC(=O)[C@H](CCC(=O)O)NC(=O)[C@H](CCC(=O)O)NC(=O)[C@@H]1CCCN1C(=O)[C@H](CO)NC(=O)[C@H](C)NC(=O)[C@H](CC(=O)O)NC(=O)[C@H](CCCCN)NC(=O)CNC(=O)[C@@H]1CCCN1C(=O)[C@H](C)NC(=O)[C@H](CCC(=O)O)NC(=O)[C@@H]1CCCN1C(=O)[C@H](CCCCNC(=O)CC[C@H](NC(=O)CC[C@H](NC(=O)CCCCCCCCCCCCCCCCCCC(=O)O)C(=O)O)C(=O)O)NC(=O)[C@@H]1CCCN1)C(=O)N[C@@H](CC(N)=O)C(=O)N[C@@H](Cc1c[nH]c2ccccc12)C(=O)N[C@@H](CC(C)C)C(=O)N[C@H](C(=O)N[C@@H](CCCNC(=N)N)C(=O)N[C@@H](CCC(N)=O)C(=O)N[C@@H](CCCNC(=N)N)C(=O)N(C)[C@@H](Cc1ccc(O)cc1)C(N)=O)[C@@H](C)O [Compound A5]
EC50 (human Y5 receptor): 10 nM
EC50 (human Y2 receptor): 20 nM
NPY4R pEC50 (human Y4 receptor): inactive

CC(C)C[C@H](NC(=O)[C@H](CC(=O)O)NC(=O)[C@H](C)NC(=O)[C@H](Cc1ccc(O)cc1)NC(=O)[C@H](Cc1ccc(O)cc1)NC(=O)[C@H](CCCNC(=N)N)NC(=O)[C@H](CC(N)=O)NC(=O)[C@H](Cc1c[nH]c2ccccc12)NC(=O)[C@H](CCC(=O)O)NC(=O)[C@H](CCC(=O)O)NC(=O)[C@@H]1CCCN1C(=O)[C@H](CO)NC(=O)[C@H](C)NC(=O)[C@H](CC(=O)O)NC(=O)[C@H](CCCCN)NC(=O)CNC(=O)[C@@H]1CCCN1C(=O)[C@H](C)NC(=O)[C@H](CCC(=O)O)NC(=O)[C@@H]1CCCN1C(=O)[C@H](CCCCN)NC(=O)[C@@H]1CCCN1)C(=O)N[C@@H](CCCNC(=N)N)C(=O)N[C@@H](Cc1c[nH]cn1)C(=O)N[C@@H](CCCCNC(=O)CC[C@H](NC(=O)CC[C@H](NC(=O)CCCCCCCCCCCCCCCCCCC(=O)O)C(=O)O)C(=O)O)C(=O)N[C@@H](CC(C)C)C(=O)N[C@@H](CC(N)=O)C(=O)N[C@@H](Cc1c[nH]c2ccccc12)C(=O)N[C@@H](CC(C)C)C(=O)N[C@H](C(=O)N[C@@H](CCCNC(=N)N)C(=O)N[C@@H](CCC(N)=O)C(=O)N[C@@H](CCCNC(=N)N)C(=O)N[C@@H](Cc1ccccc1)C(N)=O)[C@@H](C)O [Compound A52]
EC50 (human Y5 receptor): 10 nM
EC50 (human Y2 receptor): 3.98 nM
NPY4R pEC50 (human Y4 receptor): inactive

CC(C)C[C@H](NC(=O)[C@H](Cc1ccc(O)cc1)NC(=O)[C@H](Cc1c[nH]cn1)NC(=O)[C@H](CCCNC(=N)N)NC(=O)[C@H](C)NC(=O)[C@H](CC(=O)O)NC(=O)[C@H](C)NC(=O)[C@H](Cc1ccc(O)cc1)NC(=O)[C@H](Cc1ccc(O)cc1)NC(=O)[C@H](CCCNC(=N)N)NC(=O)[C@H](CC(N)=O)NC(=O)[C@H](Cc1c[nH]c2ccccc12)NC(=O)[C@H](CCC(=O)O)NC(=O)[C@H](CCC(=O)O)NC(=O)[C@@H]1CCCN1C(=O)[C@H](CO)NC(=O)[C@H](C)NC(=O)[C@H](CC(=O)O)NC(=O)[C@H](CCCCN)NC(=O)CNC(=O)[C@@H]1CCCN1C(=O)[C@H](C)NC(=O)[C@H](CCC(=O)O)NC(=O)[C@@H]1CCCN1C(=O)[C@H](CCCCN)NC(=O)[C@@H]1CCCN1C(=O)[C@@H](N)CCCCNC(=O)CC[C@H](NC(=O)CC[C@H](NC(=O)CCCCCCCCCCCCCCCCCCC(=O)O)C(=O)O)C(=O)O)C(=O)N[C@@H](CC(N)=O)C(=O)N[C@@H](Cc1c[nH]c2ccccc12)C(=O)N[C@@H](CC(C)C)C(=O)N[C@H](C(=O)N[C@@H](CCCNC(=N)N)C(=O)N[C@@H](CCC(N)=O)C(=O)N[C@@H](CCCNC(=N)N)C(=O)N(C)[C@@H](Cc1ccc(O)cc1)C(N)=O)[C@@H](C)O [Compound A4] (H-K([γGlu-γGlu-C20 diacid])PKPEAPGKDASPEEWNRYYADARHYLNWLTRQR[NMeY]-NH2; N-terminus assumed)
EC50 (human Y5 receptor): 50.1 nM
EC50 (human Y2 receptor): 2 nM
NPY4R pEC50 (human Y4 receptor): inactive

CC(C)C[C@H](NC(=O)[C@H](CC(=O)O)NC(=O)[C@H](C)NC(=O)[C@H](Cc1ccc(O)cc1)NC(=O)[C@H](Cc1ccc(O)cc1)NC(=O)[C@H](CCCNC(=N)N)NC(=O)[C@H](CCCCNC(=O)CC[C@H](NC(=O)CC[C@H](NC(=O)CCCCCCCCCCCCCCCCCCC(=O)O)C(=O)O)C(=O)O)NC(=O)[C@H](Cc1c[nH]c2ccccc12)NC(=O)[C@H](CCC(=O)O)NC(=O)[C@H](CCC(=O)O)NC(=O)[C@@H]1CCCN1C(=O)[C@H](CO)NC(=O)[C@H](C)NC(=O)[C@H](CC(=O)O)NC(=O)[C@H](CCCCN)NC(=O)CNC(=O)[C@@H]1CCCN1C(=O)[C@H](C)NC(=O)[C@H](CCC(=O)O)NC(=O)[C@@H]1CCCN1C(=O)[C@H](CCCCN)NC(=O)[C@@H]1CCCN1)C(=O)N[C@@H](CCCNC(=N)N)C(=O)N[C@@H](Cc1c[nH]cn1)C(=O)N[C@@H](Cc1ccc(O)cc1)C(=O)N[C@@H](CC(C)C)C(=O)N[C@@H](CC(N)=O)C(=O)N[C@@H](Cc1c[nH]c2ccccc12)C(=O)N[C@@H](CC(C)C)C(=O)N[C@H](C(=O)N[C@@H](CCCNC(=N)N)C(=O)N[C@@H](CCC(N)=O)C(=O)N[C@@H](CCCNC(=N)N)C(=O)N[C@@H](Cc1ccccc1)C(N)=O)[C@@H](C)O [Compound A55]
EC50 (human Y5 receptor): 20 nM
EC50 (human Y2 receptor): 1.26 nM
NPY4R pEC50 (human Y4 receptor): inactive

Reference: patent US12122816B2, “Long acting peptide tyrosine tyrosine (PYY) analogs and methods of use” (Intarcia Therapeutics, Inc., priority 2020, dated 2024)
